Measured values published in publication PMC12802961 (Journal of Antimicrobial Chemotherapy, 2025).
“And” between values parts separate entries of the source, which are not always exact repeats. Equal values may be shown once.

Tests used:
E. coli 52 [1] = assay: Checkerboard broth microdilution MIC of cefepime alone and with taniborbactam; format: cell-based, Escherichia coli; conditions: ESBL-producing E. coli; in vitro checkerboard
From the text: (§1) Four previously well-characterized cefepime-resistant isolates, namely one ESBL-producing E. coli, one ESBL-producing K. pneumoniae and two P. aeruginosa (one VIM- and one AmpC constitutively -producing), were used.

K. pneumoniae 59 = assay: as above; format: cell-based, Klebsiella pneumoniae; conditions: ESBL-producing K. pneumoniae; in vitro checkerboard
From the text: as §1

[2] = Single-dose plasma pharmacokinetics, s.c., infected neutropenic mice
Experimental: All animal procedures were carried out in the Animal Facility for Medical and Scientific Purposes of the University General Hospital Attikon (EL 25 BIO 014), Athens, Greece. […] Outbred female CD-1 mice, obtained by the Hellenic Pasteur Institute, Greece, and Charles River Laboratories Models and Services, Germany, were used at the age of 7–8 weeks, weighing 20–25 g. The animals were allowed to acclimatize for at least 5 days upon arrival and were housed under standard conditions with water and food supplied ad libitum. […] Infection was induced (Day 0) by intramuscular injection of 0.05 mL bacterial inoculum of approximately 10^5–10^6 cfu/thigh.
The dose was administered s.c. (0.1 mL) 2 h after infection (t = 0 h). Blood samples were collected in 1 mL K3EDTA tubes through orbital sinus bleeding under isoflurane anaesthesia. Animals were immediately euthanized through cervical dislocation and blood samples taken at timepoints 0, 0.08, 0.25, 0.5, 0.75, 1, 1.5, 2, 3, 4, 6, and 8 h after single dose injection. Blood samples were centrifuged immediately after collection in a pre-cooled centrifuge, and plasma was stored at −80°C. For each timepoint two animals were euthanized in order to have duplicates for each condition.
The Cmax values were calculated from raw data and the AUCs were calculated using the trapezoidal rule. […] Equations used in the program were the classical polyexponential equations Ci(t) = PolyExp(i, n, t), where i = number of the compartments, n = number of doses and t = time from last dose (http://www.boomer.org/c/p4/c19/c19.pdf). The %fT > Ct was then determined using a bisectional rootfinder for intersections between simulated curve and concentration, and calculating the difference between intersection values. Free drug concentrations were used in all calculations.
For taniborbactam, a population pharmacokinetic model was developed using nonlinear mixed-effects modelling (NONMEM). The analysis was performed on the natural logarithm of the concentrations using the FOCE method with INTERACTION. All mice were assumed to weigh 1kg, resulting in PK parameters corresponding to a per kg base. […] Tools used to evaluate and visualize the model were RStudio (v0.98.1049), R (v3.1.2), XPose (v4.5.3) and PsN (v4.6.0), all with the graphical interface Pirana (v2.9.0).
To determine the structural pharmacokinetic model 1-, 2- and 3-compartment models were tested. Pharmacokinetic parameters were estimated in terms of central and peripheral volume of distribution (Vc and Vp), clearance (CL), and intercompartmental clearance (Q). Addition of interindividual variability (IPV), described using an exponential eta model, was evaluated for each pharmacokinetic parameter. The covariance between values for IPV was estimated using a […] matrix. Residual variability between observed and predicted plasma concentrations was described using an additional error model for logarithmically transformed data. The minimum value of objective function (OFV) was used as a criterion for model selection. […] Model adequacy was further evaluated by using various residual plots (‘goodness-of-fit’ plots) and values of random effects in variances. In the second step relationships between pharmacokinetic parameters and potential covariates were investigated. […] Dose covariates were modelled by using an exponential model, place of infection was modelled proportionally. Criteria for the inclusion of covariates in the model were the OFV, results of graphical evaluation of the parameter-covariate relationship and the decrease in parameter variability.
Three procedures were used to validate the final model. As an internal validation method, a bootstrap resampling method was used. Bootstrap datasets (n=1000) were generated by sampling randomly from the original dataset with replacement. Parameters were estimated for each of the replicate datasets using the developed model.

[3] = Protein binding, equilibrium dialysis chamber, LC-MS/MS; format: in vitro ADME
From the text: […]. […] […].
. […] Free drug concentrations were used in all calculations. […]

E. coli 52 [4] = assay: Neutropenic murine thigh infection model; format: in vivo, Escherichia coli
Experimental: (§2) All dosing regimens were performed in at least two animals per dosing regimen.
(§3) At t = 0 h, 2 h after infection, two mice were humanely euthanized to determine the initial number of cfu/thigh just before treatment. […] Subsequently, thighs were homogenized using the Ultra-Turrax homogenizer (IKA Labortechnik, Germany). For each thigh 10-fold dilution series were prepared and 3 × 10 µL per dilution were plated (Chromagar, bioMérieux, NL). The following day, colonies were counted and the number of cfu/thigh was calculated.
(§4) Free drug concentrations were used in all calculations.

P. aeruginosa 106 = assay: Neutropenic murine thigh infection model; format: in vivo, Pseudomonas aeruginosa
Experimental: as §2, §3, §4

P. aeruginosa 132 = assay: Neutropenic murine thigh infection model; format: in vivo, Pseudomonas aeruginosa
Experimental: as §2, §3, §4

[5] = taniborbactam, two-compartment model
[6] = + cefepime q2h 4 mg/kg, Ct 0.015 mg/L
[7] = + cefepime q2h 4 mg/kg, Ct 0.03 mg/L
[8] = + cefepime q2h 4 mg/kg, Ct 0.06 mg/L
[9] = + cefepime q2h 4 mg/kg, Ct 0.125 mg/L
[10] = + cefepime q2h 4 mg/kg, Ct 0.25 mg/L
[11] = + cefepime q2h 4 mg/kg, Ct 0.5 mg/L
[12] = + cefepime q2h 4 mg/kg, Ct 1 mg/L
[13] = + cefepime q2h 4 mg/kg, Ct 2 mg/L
[14] = + cefepime q2h 4 mg/kg, Ct 4 mg/L
[15] = taniborbactam q2h + cefepime q2h 4 mg/kg
[16] = + cefepime q2h 64 mg/kg, Ct 0.015 mg/L
[17] = + cefepime q2h 64 mg/kg, Ct 0.03 mg/L
[18] = + cefepime q2h 64 mg/kg, Ct 0.06 mg/L
[19] = + cefepime q2h 64 mg/kg, Ct 0.125 mg/L
[20] = + cefepime q2h 64 mg/kg, Ct 0.25 mg/L
[21] = + cefepime q2h 64 mg/kg, Ct 0.5 mg/L
[22] = + cefepime q2h 64 mg/kg, Ct 1 mg/L
[23] = + cefepime q2h 64 mg/kg, Ct 2 mg/L
[24] = + cefepime q2h 64 mg/kg, Ct 4 mg/L
[25] = taniborbactam q2h + cefepime q2h 64 mg/kg
[26] = + cefepime q2h 8 mg/kg, Ct 0.015 mg/L
[27] = + cefepime q2h 8 mg/kg, Ct 0.03 mg/L
[28] = + cefepime q2h 8 mg/kg, Ct 0.06 mg/L
[29] = + cefepime q2h 8 mg/kg, Ct 0.125 mg/L
[30] = + cefepime q2h 8 mg/kg, Ct 0.25 mg/L
[31] = + cefepime q2h 8 mg/kg, Ct 0.5 mg/L
[32] = + cefepime q2h 8 mg/kg, Ct 1 mg/L
[33] = + cefepime q2h 8 mg/kg, Ct 2 mg/L
[34] = + cefepime q2h 8 mg/kg, Ct 4 mg/L
[35] = taniborbactam q2h + cefepime q2h 8 mg/kg

## NCCN[C@H]1CC[C@H](CC(=O)N[C@H]2Cc3cccc(C(=O)O)c3OB2O)CC1 [taniborbactam, Taniborbactam]
E. coli 52 [1]
  Taniborbactam concentration at which reversal of phenotypic resistance to cefepime was observed: ≤ 0.03 mg/L
K. pneumoniae 59
  Taniborbactam concentration at which reversal of phenotypic resistance to cefepime was observed: 0.25 mg/L
[2]; 772 successful bootstrap runs
  Absorption rate (h-1), Bootstrap: 20 h⁻¹
  Central volume of distribution (L/Kg), Bootstrap median (95-percentile range): 0.63 (0.58-0.68) L/Kg
  Clearance (L/h/Kg), Bootstrap median (95-percentile range): 1.49 (1.23-1.57) L/h/Kg
  IPV (%) on clearance, Bootstrap median (95-percentile range): 14 (8-19) %
  IPV (%) on intercompartmental clearance, Bootstrap median (95-percentile range): 59 (40-77) %
  Intercompartmental clearance (L/h), Bootstrap median (95-percentile range): 0.11 (0.08-0.35) L/h
  Peripheral volume of distribution (L/Kg), Bootstrap median (95-percentile range): 0.94 (0.46-13.0) L/Kg
[2]; central compartment, estimated
  t1/2a: 17.6 min
[2]; interindividual variability of CL
  IPV (%) on clearance, Estimation, value (RSE): 14.2 (14%)
[2]; interindividual variability of Q
  IPV (%) on intercompartmental clearance, Estimation, value (RSE): 60.7 (13%)
[2]; peripheral compartment, estimated
  t1/2b: 45 min
[2]; population PK model (NONMEM)
  Central volume of distribution (L/Kg), Estimation, value (RSE): 0.628 (4%) L/Kg
  Clearance (L/h/Kg), Estimation, value (RSE): 1.49 (3%) L/h/Kg
  Peripheral volume of distribution (L/Kg), Estimation, value (RSE): 0.926 (1%) L/Kg
[2]; population PK model (NONMEM), fixed
  Absorption rate (h-1), Estimation: 20 (fixed) h-1
[2]; population PK model (NONMEM), per kg
  Intercompartmental clearance (L/h), Estimation, value (RSE): 0.109 (10%) L/h
[2]; [5]
  Vc: 0.628 L/kg
  volume of peripheral compartment Vp: 0.926 L/kg
[2]; taniborbactam, two-compartment model, fixed value
  Ka: 20 h⁻¹
[3]
  Protein binding: 19.6%
E. coli 52 [4]; [6]
  1 log kill: Taniborbactam %ƒT > Ct 0.015 mg/L: 100%
  Stasis: Taniborbactam %ƒT > Ct 0.015 mg/L: 70.24%
E. coli 52 [4]; [7]
  1 log kill: Taniborbactam %ƒT > Ct 0.03 mg/L: 100%
  Stasis: Taniborbactam %ƒT > Ct 0.03 mg/L: 53.44%
E. coli 52 [4]; [8]
  1 log kill: Taniborbactam %ƒT > Ct 0.06 mg/L: 99.7%
  Stasis: Taniborbactam %ƒT > Ct 0.06 mg/L: 36.6% and 36.55%
E. coli 52 [4]; [9]
  1 log kill: Taniborbactam %ƒT > Ct 0.125 mg/L: 82.8% and 82.82%
  Stasis: Taniborbactam %ƒT > Ct 0.125 mg/L: 19.7% and 19.66%
E. coli 52 [4]; [10]
  1 log kill: Taniborbactam %ƒT > Ct 0.25 mg/L: 65.92%
  Stasis: Taniborbactam %ƒT > Ct 0.25 mg/L: 2.74%
E. coli 52 [4]; [11]
  1 log kill: Taniborbactam %ƒT > Ct 0.5 mg/L: 49.3%
  Stasis: Taniborbactam %ƒT > Ct 0.5 mg/L: 0%
E. coli 52 [4]; [12]
  1 log kill: Taniborbactam %ƒT > Ct 1 mg/L: 32.14%
  Stasis: Taniborbactam %ƒT > Ct 1 mg/L: 0%
E. coli 52 [4]; [13]
  1 log kill: Taniborbactam %ƒT > Ct 2 mg/L: 15.24%
  Stasis: Taniborbactam %ƒT > Ct 2 mg/L: 0%
E. coli 52 [4]; [14]
  1 log kill: Taniborbactam %ƒT > Ct 4 mg/L: 0%
  Stasis: Taniborbactam %ƒT > Ct 4 mg/L: 0%
E. coli 52 [4]; [15]
  1 log kill: Taniborbactam total daily dose, mg/kg: 41.8 mg/kg
  Stasis: Taniborbactam total daily dose: 3.20 mg/kg
P. aeruginosa 106; [16]
  1 log kill: Taniborbactam %ƒT > Ct 0.015 mg/L: 100%
  Stasis: Taniborbactam %ƒT > Ct 0.015 mg/L: 100%
P. aeruginosa 106; [17]
  1 log kill: Taniborbactam %ƒT > Ct 0.03 mg/L: 100%
  Stasis: Taniborbactam %ƒT > Ct 0.03 mg/L: 100%
P. aeruginosa 106; [18]
  1 log kill: Taniborbactam %ƒT > Ct 0.06 mg/L: 100%
  Stasis: Taniborbactam %ƒT > Ct 0.06 mg/L: 100%
P. aeruginosa 106; [19]
  1 log kill: Taniborbactam %ƒT > Ct 0.125 mg/L: 100%
  Stasis: Taniborbactam %ƒT > Ct 0.125 mg/L: 100%
P. aeruginosa 106; [20]
  1 log kill: Taniborbactam %ƒT > Ct 0.25 mg/L: 100%
  Stasis: Taniborbactam %ƒT > Ct 0.25 mg/L: 88.39%
P. aeruginosa 106; [21]
  1 log kill: Taniborbactam %ƒT > Ct 0.5 mg/L: 96.5%
  Stasis: Taniborbactam %ƒT > Ct 0.5 mg/L: 71.5%
P. aeruginosa 106; [22]
  1 log kill: Taniborbactam %ƒT > Ct 1 mg/L: 79.6% and 79.61%
  Stasis: Taniborbactam %ƒT > Ct 1 mg/L: 54.6% and 54.61%
P. aeruginosa 106; [23]
  1 log kill: Taniborbactam %ƒT > Ct 2 mg/L: 62.71%
  Stasis: Taniborbactam %ƒT > Ct 2 mg/L: 37.74%
P. aeruginosa 106; [24]
  1 log kill: Taniborbactam %ƒT > Ct 4 mg/L: 45.8%
  Stasis: Taniborbactam %ƒT > Ct 4 mg/L: 20.82%
P. aeruginosa 106; [25]
  1 log kill: Taniborbactam total daily dose, mg/kg: 293 mg/kg
  Stasis: Taniborbactam total daily dose: 105.00 mg/kg
P. aeruginosa 132; [26]
  1 log kill: Taniborbactam %ƒT > Ct 0.015 mg/L: 100%
  Stasis: Taniborbactam %ƒT > Ct 0.015 mg/L: 100%
P. aeruginosa 132; [27]
  1 log kill: Taniborbactam %ƒT > Ct 0.03 mg/L: 100%
  Stasis: Taniborbactam %ƒT > Ct 0.03 mg/L: 96.10%
P. aeruginosa 132; [28]
  1 log kill: Taniborbactam %ƒT > Ct 0.06 mg/L: 88.19%
  Stasis: Taniborbactam %ƒT > Ct 0.06 mg/L: 79.2%
P. aeruginosa 132; [29]
  1 log kill: Taniborbactam %ƒT > Ct 0.125 mg/L: 71.30%
  Stasis: Taniborbactam %ƒT > Ct 0.125 mg/L: 62.31%
P. aeruginosa 132; [30]
  1 log kill: Taniborbactam %ƒT > Ct 0.25 mg/L: 54.41%
  Stasis: Taniborbactam %ƒT > Ct 0.25 mg/L: 45.1%
P. aeruginosa 132; [31]
  1 log kill: Taniborbactam %ƒT > Ct 0.5 mg/L: 37.51%
  Stasis: Taniborbactam %ƒT > Ct 0.5 mg/L: 28.53%
P. aeruginosa 132; [32]
  1 log kill: Taniborbactam %ƒT > Ct 1 mg/L: 20.6% and 20.62%
  Stasis: Taniborbactam %ƒT > Ct 1 mg/L: 11.6% and 11.63%
P. aeruginosa 132; [33]
  1 log kill: Taniborbactam %ƒT > Ct 2 mg/L: 3.72%
  Stasis: Taniborbactam %ƒT > Ct 2 mg/L: 0%
P. aeruginosa 132; [34]
  1 log kill: Taniborbactam %ƒT > Ct 4 mg/L: 0%
  Stasis: Taniborbactam %ƒT > Ct 4 mg/L: 0%
P. aeruginosa 132; [35]
  1 log kill: Taniborbactam total daily dose, mg/kg: 26 mg/kg
  Stasis: Taniborbactam total daily dose: 18.00 mg/kg
